Assay results as given in patent US5965434A, “Amphipathic PH sensitive compounds and delivery systems for delivering biologically active compounds” (priority 1994, dated 1999).

Key:
[1] = background; cited from earlier work
[2] = pK by differential titration; conditions: 0.5% triton x-100
Procedure: 4-5 μmoles of compounds 1, 4, 5, 6 or 8 in a chloroform solution were dried in separate 1.5 ml microcentrifuge tubes under a vacuum overnight. The dried compounds were dissolved in […] of a 0.5% water solution of Triton X-100, pH 3.5. A 20 mM NaOH solution was added to each tube using a Dilutor 401 (Gilson Co.) and the pH was monitored using a Beckman .phi. 72 pH meter. The pKa's of the compounds were determined from differential titration curves. The transfections of the 3T3 cells were done with liposome preparations containing Dioleoylphosphatidylcholine as described above.

3T3 cells = test: Transfection of plasmid pBS.RSVLux into 3T3 cells, luciferase activity; assay type: cell-based, mouse; conditions: Table 13
Procedure: Liposomes were prepared by mixing chloroform solutions of the different lipids in microcentrifuge tubes with a 1.5 ml and removing the chloroform by vacuum to produce the dried lipid films. Tubes were placed under vacuum overnight to remove solvent traces. The amounts of cationic lipids in all cases were 1.34 mmol/ml with different amounts of other lipids as specified. One ml of sterile 10 mM HEPES buffer, pH 7.8, was added, and the tubes were sealed and vortexed for 1 min at room temperature and sonicated to obtain a clear emulsion.
The following cell lines were used: mouse 3T3 fibroblasts, COS cells (monkey kidney cell line transformed with the SV40 T ag), HeLa (human carcinoma cells), HepG2 (human hepatoma cell), 293 (monkey kidney cell line transformed with the adenovirus E1 gene ) were maintained in Dulbeco's Modified MEM media supplemented with 10% fetal calf serum. All cultures were maintained in a humidified atmosphere of 5% CO2 in air at 37° C. The cells were seeded in a 6-well plate (35 mm culture dishes) or a 12 well-plate (25 mm culture dishes) 24 h before the transfection at 70% confluence. Before transfection, the cells was washed once with Opti-MEM. In case of the 35 mm culture dishes, four μg of plasmid DNA (containing the luciferase or β-galactosidase reporter genes described below) in 0.75 ml of Opti-MEM was mixed with various amounts of liposomes in 0.75 ml of Opti-MEM. In case of the 25 mm culture dishes, one or two μg DNA in 400 μl of Opti-MEM was mixed with 400 μl of liposomes in 400 μl of Opti-MEM. The mixtures were incubated for 30 min at room temperature prior to being added to the cells in the culture dish. […]
The firefly luciferase and E. coli β-galactosidase reporter genes were used to determine the efficiency of DNA transfer quantitatively. […]
For determination of luciferase activity, cells were lysed by the addition of 100 ml for 25 mm plates and 200 μl for 35 mm plates of lysis buffer (0.1% Triton X-100, 0.1M K-phosphate, 1 mM DTT, pH 7.8). 20 μl of the cellular extract were analyzed for luciferase activity. […]

[3] = background; cited from earlier work; remark: listed apart in the source
[4] = Dioleoylphosphatidylcholine content 1:1

Q: With CCCCCCCCCCCCCCCC[N+](C)(C)C.[Br-] [CTAB, cetyltrimethylammonium bromide] as the compound, how does the Cytotoxicity [1] read?
A: significant cytotoxicity

Q: Which Cytotoxicity [1] does the source give for CC(C)CCC[C@@H](C)[C@H]1CC[C@H]2[C@@H]3CC=C4C[C@@H](OC(=O)CCC[N+](C)(C)C)CC[C@]4(C)[C@H]3CC[C@]12C [ChoTB, cholesteryl (4'-trimethylammonio)butanoate] here?
A: no evidence of reduced cytotoxicity

Q: With CCCCCCCCCCCCCCCC(=O)OCC(CSc1nccn1C)OC(=O)CCCCCCCCCCCCCCC (centres unmarked) [Compound 4] as the compound, how does the pKa [2] read?
A: < 3.5

Q: What does the source list for CC(C)CCC[C@@H](C)[C@H]1CC[C@H]2[C@@H]3CC=C4C[C@@H](SSCCN)CC[C@]4(C)[C@H]3CC[C@]12C [Compound 5]?
A: pKa [2]: 6.8; Relative Transfection Efficiency (Lipofectin = 1.0) (3T3 cells; Dioleoylphosphatidylcholine content 1:2): 0.84

Q: With CC(C)CCC[C@@H](C)[C@H]1CC[C@H]2[C@@H]3CC=C4C[C@@H](OC(=O)NCCCn5ccnc5)CC[C@]4(C)[C@H]3CC[C@]12C [Compound 6] as the compound, how does the pKa [2] read?
A: 6

Q: What about the “Relative Transfection Efficiency (Lipofectin = 1.0)” value (3T3 cells; [4]) of the same compound?
A: 0.23

Q: With CCCCCCCCCCCCCCCC(=O)OCC(CNc1ccncc1)OC(=O)CCCCCCCCCCCCCCC (centres unmarked) [Compound 8] as the compound, how does the pKa [2] read?
A: 5.3

Q: And the “Relative Transfection Efficiency (Lipofectin = 1.0)” value (3T3 cells; [4])?
A: 7.68

Q: With CCCCCCCC/C=C\CCCCCCCC(=O)OC[C@H](COC(=O)CCC(=O)OCC[N+](C)(C)C)OC(=O)CCCCCCC/C=C\CCCCCCCC [DOSC, 1,2-dioleoyl-3-succinyl-sn-glycerol choline ester] as the compound, how does the Cytotoxicity [1] read?
A: no evidence of reduced cytotoxicity

Q: What does the source list for CCCCCCCC/C=C\CCCCCCCC(=O)OCC(C[N+](C)(C)C)OC(=O)CCCCCCC/C=C\CCCCCCCC (centres unmarked) [DOTAP, 1,2-Bis(oleoyloxy)-3-(4'-trimethylammonio)propane]?
A: Cytotoxicity [1]: no evidence of reduced cytotoxicity; Inhibition of transfection by serum [3]: inhibits transfection to some extent

Q: For CCCCCCCC/C=C\CCCCCCCC(=O)OC[C@H](COC(=O)CCC[N+](C)(C)C)OC(=O)CCCCCCC/C=C\CCCCCCCC [DOTB, 1,2-dioleoyl-3-(4'-trimethylammonio)butanoyl-sn-glycerol], which Cytotoxicity [1] is on record?
A: no evidence of reduced cytotoxicity

Q: With CCCCCCCCCCCCCCCCCCN [Stearylamine] as the compound, how does the Cytotoxicity [1] read?
A: great cytotoxicity
